In general, AUC(0-inf) refers to the area under the concentration-time curve extrapolated to infinity. What is called Cmax is the maximum level reached in the sampled fluid or tissue. In general, Tmax refers to the time at which the peak concentration occurs.

Details of series [1]: method as in PMID 26349830. The conditions noted are these: healthy adults, meropenem-RPX7009; cited from earlier work.
Details of series [2]: method as in PMID 7831630. To be noted: orally administered amoxicillin-clavulanate; cited from earlier work.
The conditions of series [3]: healthy adults, ceftolozane-tazobactam; cited from earlier work.
Details of series [4]: method as in PMID 17039351. The conditions noted are these: multiple-dose, adult patients with ventilator-associated pneumonia; cited from earlier work.
The conditions of series [5]: no reference given; cited from earlier work.
Series [6] in a line: Intrapulmonary (ELF, AC) and plasma pharmacokinetics after multiple-dose IV relebactam with imipenem-cilastatin, bronchoscopy/BAL, noncompartmental analysis. In kind it is in vivo, human (healthy subjects). To be noted: for t1/2 (terminal half-life) / half-life / AUC(0-inf) / Cmax / Tmax / AUC(0-t): mean profile; for half-life: read-out: t1/2 (terminal half-life) (converted); for AUC(0-inf): noncompartmental analysis; for AUC(0-t): read-out: AUC0–3; for concentrations in AC (alveolar cells): result in words. The protocol: Dosing and administration of imipenem-cilastatin were carried out in a manner consistent with the recommended labeled posology. BAL fluid specimens were obtained during bronchoscopy for the determination of the relebactam and imipenem concentrations in the ELF and AC. Four aliquots of normal saline (50 ml each) were sequentially instilled and aspirated after each instillation. The first aspirate was discarded, and the remaining aspirates were pooled and used to obtain urea and drug level measurements. Aliquots were obtained for cell count/differential, and the remainder of the pooled aspirates was centrifuged. The liquid aspirate and cell pellet were separated and stored at −70°C. The supernatant was sent for urea and drug level measurements. Blood samples were collected prior to the first and fifth doses of study drug for the determination of relebactam and imipenem plasma concentrations. Blood samples were also collected during the bronchoscopy/BAL procedure for the determination of relebactam, imipenem, and urea concentrations. Relebactam and imipenem levels in plasma, pulmonary ELF, and AC were measured simultaneously via acetonitrile protein precipitation and hydrophilic interaction liquid chromatography (HILIC) with detection via liquid chromatography-tandem mass spectrometry (LC-MS/MS). The system consisted of a Waters Acquity ultraperformance liquid chromatograph (Waters Corp., Milford, MA) and an API 4000 or 5000 triple-quadrupole tandem mass spectrometer (Sciex, Framingham, MA) equipped with a turbo-ion spray interface and operated in the positive ionization mode. The multiple reaction monitoring (MRM) transitions monitored were m/z 349 → 269 for relebactam, m/z 300 → 98 for imipenem, and m/z 354 → 274 and m/z 307 → 98 for their respective internal standards. […] The ELF volumes recovered by BAL were determined by using urea as an endogenous marker to provide a dilution ratio by measurement of urea concentrations in the BAL fluid and serum ([33]). […] The mean value for each time point was used to conduct the noncompartmental analysis using Phoenix (version 6.3) software (Pharsight Corporation, Mountain View, CA) and to calculate the values of the PK parameters on the basis of the mean profile in each matrix.

On the set-up of series [7]: method as in PMID 21300830. The conditions noted are these: patients with ventilator-associated pneumonia; cited from earlier work.
For series [8] the following is noted: critically ill patients, multiple doses of piperacillin-tazobactam; cited from earlier work.
The mark [9] stands for this setting: both sexes, human, intravenous, ELF, same regimen.
Where [10] appears, read: both sexes, human, intravenous, plasma, same regimen.

“Also recorded” adds a separate entry of the source. Like-named read-outs stand apart in the source and are kept apart here.

Turning to `O=C(O)C[C@@H]1CC[C@H](NC(=O)Cc2cccs2)B(O)O1` [RPX7009], the “mean penetration ratio based on AUC” value in series [1] was 53%.

Regarding `CC1(C)S[C@@H]2[C@H](NC(=O)[C@H](N)c3ccc(O)cc3)C(=O)N2[C@H]1C(=O)O` [amoxicillin], in series [2], the “concentrations in ELF relative to those in plasma” value is listed as “less than 20%”.

Take `Cn1c(N)c(NC(=O)NCCN)c[n+]1CC1=C(C(=O)O)N2C(=O)[C@@H](NC(=O)/C(=N\OC(C)(C)C(=O)[O-])c3nsc(N)n3)[C@H]2SC1` [ceftolozane]: in series [3], the “ELF/plasma AUC ratio” value is recorded as 48%.

For `O=C(O)[C@H]1/C(=C/CO)O[C@@H]2CC(=O)N21` [clavulanate], the “concentrations in ELF relative to those in plasma” value in series [2] was “less than 20%”.

For `C[C@@H](O)[C@H]1C(=O)N2C(C(=O)O)=C(S[C@@H]3CN[C@H](C(=O)Nc4cccc(C(=O)O)c4)C3)[C@H](C)[C@H]12` [ertapenem], in series [4], the “ratios of ELF concentrations to total plasma concentrations, median” value is given as 0.32.

In the case of `C[C@@H](O)[C@H]1C(=O)N2C(C(=O)O)=C(SCCN=CN)C[C@H]12` [imipenem], the “unbound in plasma (free fraction)” value in series [5] is 80%. Moreover, the “t1/2 (terminal half-life)” value is 61.8 min in series [6] (ELF, same regimen) and 57 min in series [6] (plasma, same regimen). Further, the half-life is 60 min in series [6] (both sexes, human, ELF, intravenous, ELF, same regimen) and 60 min in series [6] (both sexes, human, plasma, intravenous, plasma, same regimen). In addition, in series [6] (both sexes, human, ELF, intravenous, same regimen, 0.5 h after last dose, n=4, read-out: concn in ELF, GM), the concentration at 0.5 h stood at 32.1 µM. In series [6] (both sexes, human, ELF, intravenous, same regimen, 1 h after last dose, n=4, read-out: concn in ELF, GM), the concentration at 1 h came to 20.3 µM. Further, the concentration at 1.5 h in series [6] (both sexes, human, ELF, intravenous, same regimen, 1.5 h after last dose, n=4, read-out: concn in ELF, GM) turned out to be 16.5 µM. For the same compound, the concentration at 3 h in series [6] (both sexes, human, ELF, intravenous, same regimen, 3 h after last dose, n=4, read-out: concn in ELF, GM) came to 5.99 µM. Also, the Kp was 0.55 in series [6] (both sexes, human, ELF/plasma, intravenous, calculated as 100 · ELF AUC0–∞/plasma AUC0–∞/0.8, adjusted for protein binding (80% unbound in plasma, 100% free in ELF), read-out: Adjusted ELF/plasma AUC0–∞ ratio); 0.442 in series [6] (both sexes, human, ELF/plasma, intravenous, calculated as 100 · ELF AUC0–∞/plasma AUC0–∞, mean profiles, read-out: ELF/plasma AUC0–∞ ratio); 0.32 to 0.55 in series [6] (both sexes, human, ELF/plasma, intravenous, same regimen, 0.5 to 3 h after last dose, read-out: GMRs for ELF/plasma concentrations, range across time points). For the same compound, the Kp at 1 h in series [6] (both sexes, human, ELF/plasma, intravenous, same regimen, 1.0 h after last dose, n=4, read-out: ELF/plasma concn GMR (90% CI)) is 0.36. Moreover, the Kp at 1.5 h in series [6] (both sexes, human, ELF/plasma, intravenous, same regimen, 1.5 h after last dose, n=4, read-out: ELF/plasma concn GMR (90% CI)) stood at 0.55. Besides, the Kp at 3 h in series [6] (both sexes, human, ELF/plasma, intravenous, same regimen, 3.0 h after last dose, n=4, read-out: ELF/plasma concn GMR (90% CI)) amounted to 0.5. Also, the Kp at 0.5 h in series [6] (both sexes, human, ELF/plasma, iv, healthy subjects, relebactam 250 mg with imipenem-cilastatin 500 mg IV every 6 h, 5 doses, 0.5 h after last dose, n=4, read-out: ELF/plasma concn GMR (90% CI)) came to 0.32. Besides, the values for the AUC(0-inf) in series [6] (setting [9]) and in series [6] (setting [10]) were 57.4 µM·h and 130 µM·h, respectively. Besides, the Cmax was found to be 32.6 µM in series [6] (setting [9]) and 99.6 µM in series [6] (setting [10]). Moreover, the Tmax in series [6] (setting [9]) and in series [6] (setting [10]) was 30 min throughout. Besides, the AUC(0-t) in series [6] (setting [9]) was 48.4 µM·h; in series [6] (setting [10]), 114 µM·h. Besides, the “Adjusted ELF/plasma AUC0–∞ ratio” value in series [6] (calculated as 100 · ELF AUC0–∞/plasma AUC0–∞/0.8, adjusted for protein binding (80% unbound in plasma, 100% free in ELF)) is recorded as 55.2%. Also, the “concentrations in AC (alveolar cells)” value was “below the limit of quantitation” in series [6] (same regimen) and “undetectable in the majority of patients; also recorded: not detected” in series [6] (same regimen, listed as Imipenem).

`C[C@@H](O)[C@H]1C(=O)N2C(C(=O)O)=C(S[C@@H]3CN[C@H](C(=O)N(C)C)C3)[C@H](C)[C@H]12` [meropenem]: in series [1], the “mean penetration ratio based on AUC” value was 63%. For the same compound, the “ELF/plasma concentration ratio estimated by population modeling” value in series [7] was 30%.

In the case of `C[C@]1(Cn2ccnn2)[C@H](C(=O)O)N2C(=O)C[C@H]2S1(=O)=O` [tazobactam], the “mean concentrations in ELF relative to total concentrations in plasma” value in series [8] is approximately 91%. The “ELF/plasma AUC ratio” value in series [3] is listed as 44%.

Values taken from PMC5826112, “Intrapulmonary Pharmacokinetics of Relebactam, a Novel β-Lactamase Inhibitor, Dosed in Combination with Imipenem-Cilastatin in Healthy Subjects” (Antimicrobial Agents and Chemotherapy, 2018).
